Patent US9856279B2 (AGIOS PHARMACEUTICALS, INC, priority 2011, dated 2018)

Key:
IDH1 R132H = IDH1 R132H (Homo sapiens, UniProt O75874, R132H); assay: Assay for IDH1 R132H inhibitors (NADPH/aKG, resazurin detection); format: biochemical; conditions: enzyme assay of Example 12; read-out: IDH1R132H IC50
Summary of the method: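 Compound added to substrate mix (8 uM NADPH, 2 mM aKG), then enzyme mix (0.2 μg/ml IDH1 R132H); 50 min RT in 20 mM Tris pH 7.5, 150 mM NaCl, 10 mM MgCl2, 0.03% BSA. Resazurin detection mix (30 μM) 5 min RT; resorufin fluorescence Ex544/Em590.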

HT1080 cells = assay: Cellular assay for IDH1m inhibitors: inhibition of 2-HG production (LC-MS, 48 hours) in HT1080 cells; format: cell-based; conditions: Homo sapiens, HT-1080; inhibition of 2-HG production, HT1080 cells; read-out: HT1080 IC50
Summary of the method: (§1)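 Read-out: 2-HG in culture medium by LC-MS after 48 h compound exposure; IC50 = 50% reduction vs DMSO control. Cells plated 5000/well in DMEM/10% FBS, 37 °C, 5% CO2; DMSO 0.2% final.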

U87MG cells = assay: Cellular assay for IDH1m inhibitors: inhibition of 2-HG production (LC-MS, 48 hours) in U87MG cells; format: cell-based; conditions: Homo sapiens, U-87 MG, inhibition of 2-HG production, U87R132H cells; read-out: U87R132H IC50
Summary of the method: as §1

Sequence of IDH1 R132H (O75874 whole entry R132H): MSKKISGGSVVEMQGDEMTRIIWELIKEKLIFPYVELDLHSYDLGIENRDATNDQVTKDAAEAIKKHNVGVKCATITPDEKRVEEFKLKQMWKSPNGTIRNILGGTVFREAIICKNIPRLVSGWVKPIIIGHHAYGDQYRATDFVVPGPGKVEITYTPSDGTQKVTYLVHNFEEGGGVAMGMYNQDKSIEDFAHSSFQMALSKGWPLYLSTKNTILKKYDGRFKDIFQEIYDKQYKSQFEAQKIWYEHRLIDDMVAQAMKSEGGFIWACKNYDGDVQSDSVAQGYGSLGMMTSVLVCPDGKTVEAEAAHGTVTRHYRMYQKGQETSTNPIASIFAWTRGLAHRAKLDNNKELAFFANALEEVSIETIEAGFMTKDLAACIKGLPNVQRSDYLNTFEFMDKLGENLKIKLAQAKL

Work on `COCCC(=O)N1CCN(c2nc(C3CC3)c(-c3ccc4c(c3)CC(=O)N4)cc2C#N)C[C@H]1C` [Compound 384, (R)-6-cyclopropyl-2-(4-(3-methoxypropanoyl)-3-methylpiperazin-1-yl)-5-(2-oxoindolin-5-yl)nicotinonitrile] yielded an IC50 (IDH1 R132H) of under 500 nM, an IC50 (HT1080 cells) of 500 to 1000 nM and an IC50 (U87MG cells) of 500 to 1000 nM.

`C[C@@H]1CN(c2nc(C3CC3)c(-c3cccc4cnccc34)cc2C#N)CCN1C(=O)CC(F)(F)F` [Compound 386, (R)-6-cyclopropyl-5-(isoquinolin-5-yl)-2-(3-methyl-4-(3,3,3-trifluoropropanoyl)piperazin-1-yl)nicotinonitrile] showed an IC50 (IDH1 R132H) of under 500 nM, an IC50 (HT1080 cells) of 1000 to 10000 nM and an IC50 (U87MG cells) of 500 to 1000 nM.

Work on `N#Cc1cc(-c2cccc3cnccc23)c(C2CC2)nc1N1CCN(C(=O)CC(F)(F)F)[C@H](C2CC2)C1` [Compound 387, (R)-6-cyclopropyl-2-(3-cyclopropyl-4-(3,3,3-trifluoropropanoyl)piperazin-1-yl)-5-(isoquinolin-5-yl)nicotinonitrile] yielded an IC50 (IDH1 R132H) of under 500 nM, an IC50 (HT1080 cells) of under 500 nM and an IC50 (U87MG cells) of under 500 nM.

With `COCCC(=O)N1CCN(c2nc(C3CC3)c(OC(C)c3ccncc3)cc2C#N)C[C@H]1C` (stereo partly drawn) [Compound 388, 6-cyclopropyl-2-((R)-4-(3-methoxypropanoyl)-3-methylpiperazin-1-yl)-5-(1-(pyridin-4-yl)ethoxy)nicotinonitrile] the IC50 (IDH1 R132H) was under 500 nM, the IC50 (HT1080 cells) was 1000 to 10000 nM and the IC50 (U87MG cells) was 500 to 1000 nM.

`C=CC(=O)Nc1ccc(C(C)Oc2cc(C#N)c(N3CCN(C(=O)CCOC)[C@H](C)C3)nc2C2CC2)cc1` (stereo partly drawn) [Compound 389, N-(4-(1-(5-cyano-2-cyclopropyl-6-((R)-4-(3-methoxypropanoyl)-3-methylpiperazin-1-yl)pyridin-3-yloxy)ethyl)phenyl)acrylamide] was tested, and the IC50 (IDH1 R132H) was under 500 nM, the IC50 (HT1080 cells) was under 500 nM and the IC50 (U87MG cells) was under 500 nM.

`C=Cc1cc(-c2cc(C#N)c(N3CCN(C(=O)CCOC)[C@H](C)C3)nc2C2CC2)ccn1` [Compound 390, (R)-2-cyclopropyl-6-(4-(3-methoxypropanoyl)-3-methylpiperazin-1-yl)-2′-vinyl-3,4′-bipyridine-5-carbonitrile] gave an IC50 (IDH1 R132H) of under 500 nM, an IC50 (HT1080 cells) of under 500 nM and an IC50 (U87MG cells) of under 500 nM.

`N#Cc1cc(-c2cccc3cnccc23)c(C2CC2)nc1N1CCN(C(=O)C2CC2)[C@H](C2CC2)C1` [Compound 391, (R)-2-(4-(cyclopropanecarbonyl)-3-cyclopropylpiperazin-1-yl)-6-cyclopropyl-5-(isoquinolin-5-yl)nicotinonitrile] was tested, and the IC50 (IDH1 R132H) was under 500 nM, the IC50 (HT1080 cells) was 500 to 1000 nM and the IC50 (U87MG cells) was 500 to 1000 nM.

`COCCC(=O)N1CCN(c2nc(C3CC3)c(-c3ccc(S(N)(=O)=O)cc3)c(C)c2C#N)C[C@H]1C` [Compound 393, (R)-4-{5-cyano-2-cyclopropyl-6-[4-(3-methoxy-propionyl)-3-methyl-piperazin-1-yl]-4-methyl-pyridin-3-yl}-benzenesulfonamide] showed an IC50 (IDH1 R132H) of under 500 nM, an IC50 (HT1080 cells) of 1000 to 10000 nM and an IC50 (U87MG cells) of 500 to 1000 nM.

`COCCC(=O)N1CCN(c2nc(C3CC3)c(-c3cccc4cnccc34)cc2C#N)CC1C(F)(F)F` (stereo not drawn) [Compound 398, 6-cyclopropyl-5-(isoquinolin-5-yl)-2-(4-(3-methoxypropanoyl)-3-(trifluoromethyl)piperazin-1-yl)nicotinonitrile] showed an IC50 (IDH1 R132H) of under 500 nM, an IC50 (HT1080 cells) of 1000 to 10000 nM and an IC50 (U87MG cells) of 500 to 1000 nM.

In the case of `C/C=C/C(=O)Nc1cccc(COc2cc(C#N)c(N3CCN(C(=O)CCOC)[C@H](C)C3)nc2C2CC2)c1` [Compound 400, (R,E)-N-(3-((5-cyano-2-cyclopropyl-6-(4-(3-methoxypropanoyl)-3-methylpiperazin-1-yl)pyridin-3-yloxy)methyl)phenyl)but-2-enamide], the IC50 (IDH1 R132H) is reported as 500 to 1000 nM, the IC50 (HT1080 cells) is reported as 1000 to 10000 nM and the IC50 (U87MG cells) is reported as 1000 to 10000 nM.

`COCCC(=O)N1CCN(c2nc(C3CC3)c(-c3ccnc(Cl)c3)cc2C#N)C[C@H]1C` [Compound 401, (R)-2′-chloro-2-cyclopropyl-6-(4-(3-methoxypropanoyl)-3-methylpiperazin-1-yl)-3,4′-bipyridine-5-carbonitrile] showed an IC50 (IDH1 R132H) of 500 to 1000 nM, an IC50 (HT1080 cells) of 1000 to 10000 nM and an IC50 (U87MG cells) of 1000 to 10000 nM.
